# From paper PMC6792352, “Limited Chemical Structural Diversity Found to Modulate Thyroid Hormone Receptor in the Tox21 Chemical Library” (Environmental Health Perspectives, 2019)
# Counter-ions that a name gives are not always drawn.
# Assay: in vitro
# Conditions: rat, gh3-tre-luc cells, AC50 (uM) modified / 1000
row,Compound,CC50 at 24 h [µM]
1,COc1cc(/C=C/c2ccccc2)oc(=O)c1 [Desmethoxyyangonin],> 90
2,COCC1=C(C(=O)OC(C)OC(=O)OC(C)C)N2C(=O)[C@@H](NC(=O)/C(=N\OC)c3csc(N)n3)[C@H]2SC1 (stereo partly drawn) [Cefpodoxime proxetil],> 50
3,C=CC1=C(C(=O)O)N2C(=O)[C@@H](NC(=O)/C(=N\OCC(=O)O)c3csc(N)n3)[C@H]2SC1 [Cefixime],> 20
4,"Cc1cc(Cc2ccc(N)c(C)c2)ccc1N [4,4'-Diamino-3,3'-dimethyldiphenylmethane]",> 90
5,CC(=O)CCc1ccccc1 [Benzylacetone],> 90
6,CCOC(=O)/C=C/c1ccccc1 [Ethyl cinnamate],> 90
7,Cc1cn([C@H]2C[C@H](O)[C@@H](CO)O2)c(=O)[nH]c1=O [Thymidine],> 50
8,CCCCCCCC#N [Octanenitrile],> 90
9,CC(C)(C)c1ccc(CSc2cnn(C(C)(C)C)c(=O)c2Cl)cc1 [Pyridaben],47.4
10,Cc1nc2ccc(CN(C)c3ccc(C(=O)N[C@@H](CCC(=O)O)C(=O)O)s3)cc2c(=O)[nH]1 [Raltitrexed],> 50
11,CCOCN(C(=O)CCl)c1c(C)cccc1CC [Acetochlor],> 90
12,CCN1C(=O)c2ccccc2C1Nc1ccc(OCCN2CCCCC2)cc1 (stereo not drawn) [Etomidoline],> 50
13,O=C(/C=C/C=C/c1ccc2c(c1)OCO2)N1CCCCC1 [Piperine],> 90
14,CC(=O)OC(C)C [Isopropyl acetate],> 90
15,c1ccc2c(c1)cc1ccc3cccc4ccc2c1c34 [Benzo(a)pyrene],> 90
16,"C=Cc1ccc(C=C)cc1 [1,4-Divinylbenzene]",> 100
17,O=S(=O)(c1ccccc1)c1ccc(Cl)cc1 [4-Chlorophenyl phenyl sulfone],> 90
18,C[N+]1(CC2COC(c3ccccc3)(c3ccccc3)O2)CCCCC1 (stereo not drawn) [Anacolin],> 50
19,CC(C)(O/N=C(\C(=O)N[C@@H]1C(=O)N2C(C(=O)[O-])=C(C[n+]3ccccc3)CS[C@H]12)c1csc(N)n1)C(=O)O [Ceftazidime pentahydrate],> 20
20,COc1ccc(N)c(C)c1 [4-Methoxy-2-methylaniline],> 90
21,"CCCCNC(=S)NCCCC [N,N'-Dibutylthiourea]",> 90
22,O=C(O)Cc1nn(Cc2ccc(Br)cc2F)c(=O)c2ccccc12 [Ponalrestat],> 50
23,Cc1cc(-n2c(=O)[nH]c(=O)n(C)c2=O)ccc1Oc1ccc(S(=O)(=O)C(F)(F)F)cc1 [Toltrazuril sulfone],> 50

row,Compound,CC50 at 24 h [µM]
1,CCOC(=O)Nc1ccc2c(c1)N(C(=O)CN(C)C)c1ccccc1CC2 [Tiracizine],41.3
2,CC(=O)N[C@@H](Cc1ccc(O)cc1)C(=O)O [N-Acetyl-L-tyrosine],> 50
3,CCSC(=O)N1CCCCCC1 [Molinate],> 90
4,C[C@H]1C[C@H]2[C@@H]3CCC4=CC(=O)C=C[C@]4(C)[C@@]3(Cl)[C@@H](O)C[C@]2(C)[C@@]1(O)C(=O)CO [Beclomethasone],> 50
5,O=C(O[C@@H](C(=O)O)[C@@H](OC(=O)c1ccccc1)C(=O)O)c1ccccc1 [Dibenzoyl-L-tartaric acid],> 90
6,Cc1cccc(N)c1 [3-Methylaniline hydrochloride],> 90
7,Cc1cc(C)nc(Nc2ccccc2)n1 [Pyrimethanil],> 90
8,CCCCCCOC(=O)c1ccccc1O [Hexyl salicylate],> 90
9,CC(C)(C)c1ccc(OCC2CO2)cc1 (stereo not drawn) [tert-Butyl phenyl glycidyl ether],> 90
10,O=Cc1cccc(Br)c1 [3-Bromobenzaldehyde],> 90
11,Cc1nc2cc(Cl)ccc2[nH]1 [5-Chloro-2-methyl-1H-benzimidazole],> 90
12,"CC1(N)CCC(C(C)(C)N)CC1 (stereo not drawn) [1,8-Diamino-p-menthane]",> 90
13,COC(=O)[C@@H](N)CS [Methyl L-cysteinate hydrochloride],> 50
14,"Nc1c(Cl)cc(Cl)cc1[N+](=O)[O-] [2,4-Dichloro-6-nitroaniline]",> 90
15,"CC(=O)C(Cl)(Cl)Cl [1,1,1-Trichloropropanone]",13.3
16,"O=C(Nc1ccc(Cl)c(Cl)c1)c1cc(Cl)cc(Cl)c1O [3,5-Dichlorosalicyl-3,4-dichloroanilide]",2.97
17,"CC(=O)Nc1ccc(C)cc1C [N-(2,4-Dimethylphenyl)acetamide]",> 90
18,O=Cc1cc(O)ccc1Br [2-Bromo-5-hydroxy-benzaldehyde],> 90
19,CC/C=C\CCOC(=O)CCCCC [(3Z)-Hex-3-en-1-yl hexanoate],> 90
20,CC(=O)OCC(=O)[C@H]1CC[C@H]2[C@@H]3CC[C@H]4C[C@H](O)CC[C@]4(C)[C@H]3C(=O)C[C@]12C [Alfadolone acetate],> 20
21,Cc1ccc(N)cc1O [5-Amino-2-methylphenol],> 90
22,Cc1ccc(-n2nc(C(C)(C)C)cc2NC(=O)Nc2ccc(OCCN3CCOCC3)c3ccccc23)cc1 [Doramapimod],> 50
23,CC(C)(C)NCC(O)c1ccc(O)c(CO)c1 (stereo not drawn) [Albuterol],> 90

row,Compound,CC50 at 24 h [µM]
1,COC1=C(OC)C(=O)C(CCCCCCCCCCO)=C(C)C1=O [Idebenone],35.2
2,"CC1(C)C(=O)N(Br)C(=O)N1Br [1,3-Dibromo-5,5-dimethylhydantoin]",> 90
3,CC(Cc1cccc(C(F)(F)F)c1)NCCOC(=O)c1ccccc1 (stereo not drawn) [Benfluorex hydrochloride],27.3
4,O=C1OC(=O)C2C1C1(Cl)C(Cl)=C(Cl)C2(Cl)C1(Cl)Cl (stereo not drawn) [Chlorendic anhydride],> 90
5,CC(=O)OCC(C)C [Isobutyl acetate],> 90
6,CN1[C@@H]2CC[C@H]1CC(OC1c3ccccc3CCc3ccccc31)C2 (stereo partly drawn) [Deptropine citrate],12.2
7,O=C(O)COc1ccccc1/C=N/NC(=O)c1ccncc1 [Aconiazide],> 50
8,CCCCCOC(=O)CCC [Pentyl butyrate],> 90
9,CNC(=O)[C@H]1O[C@@H](n2cnc3c(NCc4cc(Cl)ccc4OCc4cc(C)no4)ncnc32)[C@H](O)[C@@H]1N [CP-608039],> 90
10,CCCCCCCCCCCO [1-Undecanol],> 90
11,"O=C(O)c1cccc(Cl)c1Cl [2,3-Dichlorobenzoic acid]",> 90
12,CC(=O)O[C@H]1CC[C@H]2[C@@H]3CCC4=CC(=O)CCC4=C3C=C[C@]12C [Trenbolone acetate],> 50
13,CCCC[N+]1(C)[C@@H]2CC(OC(=O)[C@H](CO)c3ccccc3)C[C@H]1[C@@H]1O[C@@H]12 (stereo partly drawn) [Butylscopolammonium bromide],> 50
14,COc1cc(CCC(C)=O)ccc1O [4-(4-Hydroxy-3-methoxyphenyl)-2-butanone],> 90
15,"C/C=C/C=C/COC(=O)C(C)C [2,4-Hexadienyl isobutyrate]",75.5
16,O=P(O)(O)OC[C@H](O)CO [sn-Glycerol 3-phosphate bis(cyclohexylammonium)],> 50
17,"CC1=C(C)C(=O)C(C(CCCCCC(=O)O)c2ccccc2)=C(C)C1=O (racemic) [(+-)-7-(3,5,6-trimethyl-1,4-benzoquinon-2-yl)-7-phenylheptanoic acid]",> 50
18,CN1CCC(OC(c2ccccc2)c2ccccc2)CC1 [Diphenylpyraline hydrochloride],> 20
19,CCCC1([C@H](O)C/C=C/[C@H]2[C@H](O)CC(=O)[C@@H]2CCCCCCC(=O)OC)CCC1 [(R)-Butaprost],32.9
20,CC(C)=CC=O [3-Methylbut-2-enal],> 100
21,NCCNCCN [Diethylenetriamine],> 90
22,CCc1ccc2c(c1)N(CC(C)CN(C)C)c1ccccc1S2 (stereo not drawn) [Etymemazine hydrochloride],9.18

# Same assay, conditions: rat, gh3-tre-luc cells, AC50 (uM) modified / 1000, Tox21_110001=Tox21_111223; viability, 1 nM T3 present, 24 h
row,Compound,CC50 at 24 h [µM]
1,C[C@]12CC[C@H](OS(=O)(=O)O)CC1=CC[C@@H]1[C@@H]2CC[C@]2(C)C(=O)CC[C@@H]12 [Sodium prasterone sulfate dihydrate],> 50

# Same assay, conditions: rat, gh3-tre-luc cells, AC50 (uM) modified / 1000, Tox21_110001=Tox21_111273; viability, 1 nM T3 present, 24 h
row,Compound,CC50 at 24 h [µM]
1,COc1ccccc1N1CCNCC1 [1-(2-Methoxyphenyl)piperazine hydrochloride],> 50

# Same assay, conditions: rat, gh3-tre-luc cells, AC50 (uM) modified / 1000, Tox21_110001=Tox21_111647; viability, 1 nM T3 present, 24 h
row,Compound,CC50 at 24 h [µM]
1,C[C@]12C=CC(=O)C=C1CC[C@@H]1[C@@H]2CC[C@@]2(C)[C@H]1CC[C@]2(C)O [Methandrostenolone],> 50

# Same assay, conditions: rat, gh3-tre-luc cells, AC50 (uM) modified / 1000, Tox21_110001=Tox21_111979; viability, 1 nM T3 present, 24 h
row,Compound,CC50 at 24 h [µM]
1,CCN(CC)CCOC(=O)C(C)(c1ccccc1)c1ccccc1 [Aprofene],15.4

# Same assay, conditions: rat, gh3-tre-luc cells, AC50 (uM) modified / 1000, Tox21_110001=Tox21_200757; viability, 1 nM T3 present, 24 h
row,Compound,CC50 at 24 h [µM]
1,CN(C)c1ccc(N=Nc2ccccc2)cc1 [4-(Dimethylamino)azobenzene],> 90

# Same assay, conditions: rat, gh3-tre-luc cells, AC50 (uM) modified / 1000, Tox21_110001=Tox21_201334; viability, 1 nM T3 present, 24 h
row,Compound,CC50 at 24 h [µM]
1,CN(C)C(=O)Cl [Dimethylcarbamoyl chloride],> 90

# Same assay, conditions: rat, gh3-tre-luc cells, AC50 (uM) modified / 1000, Tox21_110001=Tox21_201878; viability, 1 nM T3 present, 24 h
row,Compound,CC50 at 24 h [µM]
1,CCC(C)c1cc([N+](=O)[O-])cc([N+](=O)[O-])c1O (stereo not drawn) [Dinoseb],> 90

# Same assay, conditions: rat, gh3-tre-luc cells, AC50 (uM) modified / 1000, Tox21_110001=Tox21_300421; viability, 1 nM T3 present, 24 h
row,Compound,CC50 at 24 h [µM]
1,CCC(C)c1cc([N+](=O)[O-])cc([N+](=O)[O-])c1O (stereo not drawn) [Dinoseb],20.4

# Same assay, conditions: rat, gh3-tre-luc cells, AC50 (uM) modified / 1000, Tox21_110001=Tox21_301184; viability, 1 nM T3 present, 24 h
row,Compound,CC50 at 24 h [µM]
1,COc1cc(OC)nc(NC(=O)NS(=O)(=O)c2ncccc2OCC(F)(F)F)n1 [Trifloxysulfuron-sodium],> 90

# Same assay, conditions: rat, gh3-tre-luc cells, AC50 (uM) modified / 1000, Tox21_110001=Tox21_302658; viability, 1 nM T3 present, 24 h
row,Compound,CC50 at 24 h [µM]
1,CC(=O)CCc1ccc2c(c1)OCO2 [Piperonyl acetone],> 90
